The values that follow come from patent publication US4659734A, “Olinecarboxylic acid derivatives” (Nippon Shinyaku Co., Ltd., priority 1983, dated 1987).

≈ marks a conversion by molar mass, not a printed value.

The subject of data set [1] is Pseudomonas aeruginosa E-2. Nature of the data set: Ascending urinary tract infection. It is filed as in vivo, ICR female mice. The method, then: ICR Female mice (body weight 20±1 grams) of SPE strain were used in the experiments. The mice were not given any water for seventeen hours, then compulsorily urinated, anesthesized by the administration of 60 mg/kg of pentobarbital into the abdominal cavity, then 1.5×10^5 of Pseudomonas aeruginosa E-2 strain were impregnated into the bladder via the urinary tract, and the external urinary meatus was stopped for four hours by a pin clip, whereupon the mice were infected in the ascending urinary tract.
The compound of Example 22b was given once orally, 4 hours after infection, then twice a day, and the administration was continued for three days. On the fourth day, the kidney was isolated, homogenized in a physiological saline solution, and the number of bacteria was calculated on suitable medium such as, for example, Drigalski medium. If the number of bacteria per one gram of kidney was less than […], then the compound was judged as "effective".

Data set [2] can be described thus: Blood serum concentration, disc method. In kind it is in vivo, ddY strain mice. The method, then: In this experiment, ddY strain mice (male; body weight 30±2 grams) were used. Sixty mg/kg of the compound of Example 22b were given per os. The blood concentration was calculated from calibration curves obtained by the disc method using Escherichia coli NIHJ strain as tested bacteria and diluting the test compound of mice serum.

For data set [3], the system named is Streptococcus pneumoniae Type I. Put plainly: Minimum growth inhibiting concentration, Japan Chemotherapeutic Society method. It is filed as cell-based. Conditions: Gram +, 5% horse blood added agar medium, read-out: Minimum Growth Inhibiting Concn. As to the method:
(§1) The Antibacterial activity of the compounds of Examples 14, 13, 22b, 21 and 15 was determined in accordance with the method of Japan Chemotherapeutic Society (cf. Nippon Kagaku Ryoho Gakkai Shi, volume 29, number 1, pages 76 to 79, 1981) and the results are reported in Table 1, which follows. | *5% Horse blood added agar medium for sensitivity measurement being used.

Data set [4] has as its system Bacillus subtilis ATCC 6633. Described as above. It is filed as cell-based. The conditions noted are these: ATCC6633; Bacillus subtilis ATCC 6633, Gram +; 5% horse blood added agar medium; read-out: Minimum Growth Inhibiting Concn. As to the method:
as §1

Data set [5] deals with Streptococcus pyogenes S-23. Described as above. It is filed as cell-based. Conditions: S23; Streptococcus pyogenes S-23, Gram +; 5% horse blood added agar medium; read-out: Minimum Growth Inhibiting Concn. The method, then:
as §1

For the compound `Cc1csc2c(C(=O)O)c(=O)c3cc(F)c(N4CCN(C)CC4)cc3n12` [Example 22b, 7-fluoro-1-methyl-8-(4-methyl-1-piperazinyl)-5-oxo-5H-thiazolo(3,2-a)-quinoline-4-carboxylic acid], the “Number Of Mice Where Compound Was Effective/Total Mice Tested” value in data set [1] (3.13 mg/kg oral) was 1/7; in data set [1] (6.25 mg/kg oral) it was 4/7; in data set [1] (12.5 mg/kg oral), 4/7; in data set [1] (25 mg/kg oral), 6/7; in data set [1] (50 mg/kg oral), 7/7; in data set [1] (100 mg/kg oral, 4 h after infection then twice a day, three days) it was 7/7. For the same compound, in data set [1] (Pseudomonas aeruginosa, E2, in Mus musculus, 72 h, ascending urinary tract infection, oral, three days, read-out: 50% Effective Dose), the ED50 was found to be 8 mg/kg. Moreover, the concentration at 0.25 h in data set [2] (mouse, serum, po, 0.25 hours, 60 mg/kg per os, average ± standard error) was determined as 3400 ± 820 ng/mL. The compound also showed a concentration at 0.5 h in data set [2] (mouse, serum, po, 0.5 hours, 60 mg/kg per os, average ± standard error) of 5400 ± 320 ng/mL. This compound also came in with a concentration at 1 h in data set [2] (mouse, serum, po, 1 hour, 60 mg/kg per os, average ± standard error) of 4200 ± 700 ng/mL. In data set [2] (mouse, serum, po, 2 hours, 60 mg/kg per os, average ± standard error), this compound registered a concentration at 2 h of 3300 ± 370 ng/mL. Moreover, in data set [2] (mouse, serum, po, 4 hours, 60 mg/kg per os, average ± standard error), the concentration at 4 h was found to be 2500 ± 230 ng/mL. Moreover, in data set [2] (oral, mice), the “blood concentration (in words)” value was “promptly gave high and sustained blood concentrations when administered orally”. Moreover, the figures for the MIC in data set [3], in data set [4] and in data set [5] were 0.39 µg/mL (≈ 1.04 µM), 0.0008 µg/mL (≈ 0.00213 µM) and 0.2 µg/mL (≈ 0.533 µM), respectively.
